Experimental data as given in patent publication EP2970215B1, “PYRROLIDINE DERIVATIVES, PHARMACEUTICAL COMPOSITIONS CONTAINING THEM, AND THEIR USE IN THERAPY” (AbbVie Deutschland GmbH & Co. KG, priority 2013, dated 2014).

Biological target: T1, human GlyT1c transporter (Homo sapiens, UniProt P48067)
T1 construct: expressed in transfected cells; host or cells: CHO cells (recombinant; line hGlyT1c_5_CHO is named for the uptake assay)
T1 sequence (P48067 1-706): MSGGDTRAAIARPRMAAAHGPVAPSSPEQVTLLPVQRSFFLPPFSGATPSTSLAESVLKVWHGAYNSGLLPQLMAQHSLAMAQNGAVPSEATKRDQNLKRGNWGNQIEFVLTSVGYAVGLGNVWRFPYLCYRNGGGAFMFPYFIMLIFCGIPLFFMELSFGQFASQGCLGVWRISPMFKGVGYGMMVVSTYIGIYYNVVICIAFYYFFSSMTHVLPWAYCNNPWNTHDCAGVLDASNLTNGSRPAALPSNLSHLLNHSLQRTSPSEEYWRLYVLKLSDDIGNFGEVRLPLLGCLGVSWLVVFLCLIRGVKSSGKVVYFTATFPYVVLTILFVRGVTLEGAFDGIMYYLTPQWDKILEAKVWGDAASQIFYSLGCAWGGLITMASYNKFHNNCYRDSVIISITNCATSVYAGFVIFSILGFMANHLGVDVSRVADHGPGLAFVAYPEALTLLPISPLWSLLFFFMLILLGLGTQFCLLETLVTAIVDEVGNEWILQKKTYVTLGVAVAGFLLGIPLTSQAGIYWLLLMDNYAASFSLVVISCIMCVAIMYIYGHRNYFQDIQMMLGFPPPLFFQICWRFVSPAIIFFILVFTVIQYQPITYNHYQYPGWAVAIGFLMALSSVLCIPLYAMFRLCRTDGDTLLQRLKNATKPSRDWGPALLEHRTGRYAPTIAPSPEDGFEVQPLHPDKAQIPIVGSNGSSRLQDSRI
Assay: Radioligand binding assay using recombinant CHO cell membranes expressing human GlyT1
Details: radioligand binding to human GlyT1c transporter-expressing membranes
Description: 2. Radioligand binding assays using recombinant CHO cell membranes expressing human GlyT1: […]

Structure (SMILES)	Ki [nM]
Cn1cnc(S(=O)(=O)N2C[C@H](Nc3ncc(F)c(C(F)(F)F)c3F)[C@@H](c3ccccc3)C2)c1 [Example 408, 3,5-difluoro-N-{(3R,4S)-1-[(1-methyl-1H-imidazol-4-yl)sulfonyl]-4-phenylpyrrolidin-3-yl}-4-(trifluoromethyl)pyridin-2-amine]	≤ 10000
Cn1cnc(S(=O)(=O)N2C[C@H](Nc3cnc(N4CCCC4)cn3)[C@@H](c3ccccc3)C2)c1 [Example 413, N-{(3R,4S)-1-[(1-methyl-1H-imidazol-4-yl)sulfonyl]-4-phenylpyrrolidin-3-yl}-5-(pyrrolidin-1-yl)pyrazin-2-amine]	≤ 10000
Cn1cnc(S(=O)(=O)N2C[C@H](NC(=O)c3cnc(Cl)cn3)[C@@H](c3ccccc3)C2)c1 [Example 415, 5-chloro-N-{(3R,4S)-1-[(1-methyl-1H-imidazol-4-yl)sulfonyl]-4-phenylpyrrolidin-3-yl}pyrazine-2-carboxamide]	≤ 10000
Cn1cnc(S(=O)(=O)N2C[C@H](Nc3ccc(F)c(F)c3)[C@@H](c3ccc(F)cc3)C2)c1 [Example 418, (3R,4S)-N-(3,4-difluorophenyl)-4-(4-fluorophenyl)-1-[(1-methyl-1H-imidazol-4-yl)sulfonyl]pyrrolidin-3-amine]	≤ 100
Cn1cnc(S(=O)(=O)N2C[C@H](Nc3cccc(S(C)(=O)=O)c3)[C@@H](c3ccccc3)C2)c1 [Example 422, (3R,4S)-1-[(1-methyl-1H-imidazol-4-yl)sulfonyl]-N-[3-(methylsulfonyl)phenyl]-4-phenylpyrrolidin-3-amine]	≤ 1000
Cn1cnc(S(=O)(=O)N2C[C@H](NCCC3CCCC3)[C@@H](c3ccccc3)C2)c1 [Example 427, (3R,4S)-N-(2-cyclopentylethyl)-1-[(1-methyl-1H-imidazol-4-yl)sulfonyl]-4-phenylpyrrolidin-3-amine]	≤ 100
Cn1cnc(S(=O)(=O)N2C[C@H](NCC3(C)CCOCC3)[C@@H](c3ccccc3)C2)c1 [Example 429, (3R,4S)-1-[(1-methyl-1H-imidazol-4-yl)sulfonyl]-N-[(4-methyltetrahydro-2H-pyran-4-yl)methyl]-4-phenylpyrrolidin-3-amine]	> 10000
Cc1cnc(CN[C@H]2CN(S(=O)(=O)c3cn(C)cn3)C[C@@H]2c2ccccc2)s1 [Example 431, (3R,4S)-1-[(1-methyl-1H-imidazol-4-yl)sulfonyl]-N-[(5-methyl-1,3-thiazol-2-yl)methyl]-4-phenylpyrrolidin-3-amine]	≤ 10000
Cn1cnc(S(=O)(=O)N2C[C@H](NCc3c(Cl)cncc3Cl)[C@@H](c3ccccc3)C2)c1 [Example 432, (3R,4S)-N-[(3,5-dichloropyridin-4-yl)methyl]-1-[(1-methyl-1H-imidazol-4-yl)sulfonyl]-4-phenylpyrrolidin-3-amine]	≤ 10000
Cn1cnc(S(=O)(=O)N2C[C@H](NCc3sc(Cl)nc3Cl)[C@@H](c3ccccc3)C2)c1 [Example 435, (3R,4S)-N-[(2,4-dichloro-1,3-thiazol-5-yl)methyl]-1-[(1-methyl-1H-imidazol-4-yl)sulfonyl]-4-phenylpyrrolidin-3-amine]	≤ 100
Cn1cnc(S(=O)(=O)N2C[C@H](NCc3sc4ccccc4c3Cl)[C@@H](c3ccccc3)C2)c1 [Example 440, (3R,4S)-N-[(3-chloro-1-benzothiophen-2-yl)methyl]-1-[(1-methyl-1H-imidazol-4-yl)sulfonyl]-4-phenylpyrrolidin-3-amine]	≤ 100
Cn1cnc(S(=O)(=O)N2C[C@H](NCc3cc4cccnc4s3)[C@@H](c3ccccc3)C2)c1 [Example 442, (3R,4S)-1-[(1-methyl-1H-imidazol-4-yl)sulfonyl]-4-phenyl-N-(thieno[2,3-b]pyridin-2-ylmethyl)pyrrolidin-3-amine]	≤ 1000
Cc1oc2ccccc2c1CN[C@H]1CN(S(=O)(=O)c2cn(C)cn2)C[C@@H]1c1ccccc1 [Example 443, (3R,4S)-N-[(2-methyl-1-benzofuran-3-yl)methyl]-1-[(1-methyl-1H-imidazol-4-yl)sulfonyl]-4-phenylpyrrolidin-3-amine]	≤ 1000
Cn1cnc(S(=O)(=O)N2C[C@H](NCc3cncc(-c4ccc(F)cc4)c3)[C@@H](c3ccccc3)C2)c1 [Example 445, (3R,4S)-N-{[5-(4-fluorophenyl)pyridin-3-yl]methyl}-1-[(1-methyl-1H-imidazol-4-yl)sulfonyl]-4-phenylpyrrolidin-3-amine]	≤ 1000

The remaining lines, values ahead:

Ki [nM]	Structure (SMILES)
≤ 10000	Cn1cnc(S(=O)(=O)N2C[C@H](Nc3ncnc4[nH]ccc34)[C@@H](c3ccccc3)C2)c1 [Example 406, N-{(3R,4S)-1-[(1-methyl-1H-imidazol-4-yl)sulfonyl]-4-phenylpyrrolidin-3-yl}-7H-pyrrolo[2,3-d]pyrimidin-4-amine]
≤ 100	Cn1cnc(S(=O)(=O)N2C[C@H](NCc3ccc(C(F)(F)F)cn3)[C@@H](c3ccccc3)C2)c1 [Example 409, (3R,4S)-1-[(1-methyl-1H-imidazol-4-yl)sulfonyl]-4-phenyl-N-{[5-(trifluoromethyl)pyridin-2-yl]methyl}pyrrolidin-3-amine]
≤ 10000	Cn1cnc(S(=O)(=O)N2C[C@H](Nc3cnc(C4CC4)cn3)[C@@H](c3ccccc3)C2)c1 [Example 410, 5-cyclopropyl-N-{(3R,4S)-1-[(1-methyl-1H-imidazol-4-yl)sulfonyl]-4-phenylpyrrolidin-3-yl}pyrazin-2-amine]
≤ 10000	Cn1cnc(S(=O)(=O)N2C[C@H](Nc3cccc4c3CNC4=O)[C@@H](c3ccccc3)C2)c1 [Example 421, 4-({(3R,4S)-1-[(1-methyl-1H-imidazol-4-yl)sulfonyl]-4-phenylpyrrolidin-3-yl}amino)-2,3-dihydro-1H-isoindol-1-one]
≤ 10000	Cn1cnc(S(=O)(=O)N2C[C@H](NCC3CNC(C(F)(F)F)CN3)[C@@H](c3ccccc3)C2)c1 (stereo partly drawn) [Example 423, (3R,4S)-1-[(1-methyl-1H-imidazol-4-yl)sulfonyl]-4-phenyl-N-{[5-(trifluoromethyl)piperazin-2-yl]methyl}pyrrolidin-3-amine]
≤ 1000	Cn1cnc(S(=O)(=O)N2C[C@H](Nc3ncc(F)cn3)[C@@H](c3ccccc3)C2)c1 [Example 424, 5-fluoro-N-{(3R,4S)-1-[(1-methyl-1H-imidazol-4-yl)sulfonyl]-4-phenylpyrrolidin-3-yl}pyrimidin-2-amine]
≤ 1000	Cn1cnc(S(=O)(=O)N2C[C@H](NCCCC(F)(F)F)[C@@H](c3ccccc3)C2)c1 [Example 426, (3R,4S)-1-[(1-methyl-1H-imidazol-4-yl)sulfonyl]-4-phenyl-N-(4,4,4-trifluorobutyl)pyrrolidin-3-amine]
> 10000	Cn1cnc(S(=O)(=O)N2C[C@H](NCc3scnc3-c3ccccc3)[C@@H](c3ccccc3)C2)c1 [Example 430, (3R,4S)-1-[(1-methyl-1H-imidazol-4-yl)sulfonyl]-4-phenyl-N-[(4-phenyl-1,3-thiazol-5-yl)methyl]pyrrolidin-3-amine]
≤ 100	CCCCC(CC)CN[C@H]1CN(S(=O)(=O)c2cn(C)cn2)C[C@@H]1c1ccccc1 (stereo partly drawn) [Example 433, (3R,4S)-N-(2-ethylhexyl)-1-[(1-methyl-1H-imidazol-4-yl)sulfonyl]-4-phenylpyrrolidin-3-amine]
≤ 10000	Cc1ncsc1CN[C@H]1CN(S(=O)(=O)c2cn(C)cn2)C[C@@H]1c1ccccc1 [Example 434, (3R,4S)-1-[(1-methyl-1H-imidazol-4-yl)sulfonyl]-N-[(4-methyl-1,3-thiazol-5-yl)methyl]-4-phenylpyrrolidin-3-amine]
≤ 1000	Cn1cnc(S(=O)(=O)N2C[C@H](NCC(C)(C)C)[C@@H](c3ccccc3)C2)c1 [Example 436, (3R,4S)-N-(2,2-dimethylpropyl)-1-[(1-methyl-1H-imidazol-4-yl)sulfonyl]-4-phenylpyrrolidin-3-amine]
≤ 100	Cc1ccc2sc(CN[C@H]3CN(S(=O)(=O)c4cn(C)cn4)C[C@@H]3c3ccccc3)cc2c1 [Example 437, (3R,4S)-N-[(5-methyl-1-benzothiophen-2-yl)methyl]-1-[(1-methyl-1H-imidazol-4-yl)sulfonyl]-4-phenylpyrrolidin-3-amine]
≤ 1000	CC(C)CN[C@H]1CN(S(=O)(=O)c2cn(C)cn2)C[C@@H]1c1ccccc1 [Example 439, (3R,4S)-1-[(1-methyl-1H-imidazol-4-yl)sulfonyl]-N-(2-methylpropyl)-4-phenylpyrrolidin-3-amine]
≤ 10000	Cc1nc(C)c(CN[C@H]2CN(S(=O)(=O)c3cn(C)cn3)C[C@@H]2c2ccccc2)s1 [Example 441, (3R,4S)-N-[(2,4-dimethyl-1,3-thiazol-5-yl)methyl]-1-[(1-methyl-1H-imidazol-4-yl)sulfonyl]-4-phenylpyrrolidin-3-amine]
≤ 100	CCCC(C)CN[C@H]1CN(S(=O)(=O)c2cn(C)cn2)C[C@@H]1c1ccccc1 (stereo partly drawn) [Example 446, (3R,4S)-1-[(1-methyl-1H-imidazol-4-yl)sulfonyl]-N-(2-methylpentyl)-4-phenylpyrrolidin-3-amine]
